Source: patent publication US11179377B2, “Pharmaceutical compositions and uses thereof” (Embera NeuroTherapeutics, Inc., priority 2017, dated 2021)

What was measured:
Assay type in all cases: physicochemical
[1] = Oxazepam Assay and Related Substances after 4 Weeks of Storage (HPLC Test Method A); details: for Assay at 1 mo (oxazepam) / Total imps at 1 mo: oxazepam method (Test Method A)
Protocol: (§1) Binary mixtures of the drug substances were prepared, stressed at 40° C./75% RH for 4 weeks and evaluated by the assay and related substances method using both analytical methods. Prototype blends containing oxazepam and metyrapone were prepared that would represent potential approaches for a single unit combination tablet with (i) one prototype using dry granulation and (ii) one prototype using wet granulation. The blends were stressed at 25° C./60% RH and at 40° C./75% RH for 4 weeks and evaluated.
Accurately weigh samples into a volumetric flask. Add approximately 2 mL of water to disintegrate the samples. Add sample diluent, sonicate for 15 minutes, shake for 15 minutes, and then bring to volume with sample diluent and mix well. Filter the solution, dilute as needed with the sample diluent for analysis, and analyze by HPLC using the chromatographic conditions below.
(§2) The compatibility between the two compounds was evaluated as (i) neat API mixtures (1:15 and 1:30 ratios of oxazepam:metyrapone) and (ii) in prototype matrices that are representative of final forms if a simple combination tablet were to be manufactured (see Table 16). These prototypes have metyrapone and oxazepam ratios representative of a 720 mg metyrapone/24 mg oxazepam dose.
(§3) One prototype was prepared using a dry granulation process while the other was prepared using a wet granulation process. In both prototypes, metyrapone was formulated intragranularly while oxazepam included extragranularly. The excipients used in each case were similar to those used on oxazepam and metyrapone minitabs formulations. The dry granulation process was facilitated through roller compaction of the intragranular components.
(§4) Samples of API mixtures and prototype tablets (created from slugs compressed on a Carver press) were stored at 25° C./60% RH and at 40° C./75% RH in glass vials with screw caps. Samples were removed from storage after 4 weeks and analyzed for metyrapone, oxazepam and related substances using both HPLS analytical methods (Test methods A and B). Different dilutions were required to appropriately analyze for metyrapone and oxazepam from the mixtures due to the large amount of metyrapone relative to oxazepam.
(§5) The compatibility of metyrapone and oxazepam was evaluated by comparing potency and impurity profiles of the following samples: • 1. Neat oxazepam API stored for 4 weeks at 25° C./60% RH and 40° C./75% RH. • 2. Neat metyrapone API stored for 4 weeks at 25° C./60% RH and 40° C./75% RH. • 3. Binary mixtures of oxazepam and metyrapone APIs at 1:15 and 1:30 ratios stored for 4 weeks at 25° C./60% RH and 40° C./75% RH. • 4. Prototype blend prepared using the wet granulation approach (metyrapone—intragranular; oxazepam—extragranular) stored for 4 weeks at 25° C./60% RH and 40° C./75% RH. • 5. Prototype blend prepared using the dry granulation approach (roller compacted metyrapone—intragranular; oxazepam—extragranular) stored for 4 weeks at 25° C./60% RH and 40° C./75% RH.
(§6) For each active pharmaceutical component, the potency and impurity values of neat API were compared with those for the binary mixtures and prototypes. Since the methods are unable to distinguish impurities from the two actives, compatibility was assessed by the increase in total impurities and decrease in potency values of the actives. The results are shown in Table 17 for oxazepam and Table 18 for metyrapone. The % peak areas for API admixtures and prototypes are proportional to the ratio of the two actives in the corresponding samples.

[2] = Metyrapone-Oxazepam Compatibility Study, overall conclusions
Protocol: A study was conducted to assess the compatibility between oxazepam and metyrapone in a single pharmaceutical composition (e.g., single tablet unit containing both compounds).
as §1
The compatibility between the two compounds was evaluated as (i) neat API mixtures (1:15 and 1:30 ratios of oxazepam:metyrapone) and (ii) in prototype matrices that are representative of final forms if a simple combination tablet were to be manufactured (see Table 16). […]
Samples of API mixtures and prototype tablets (created from slugs compressed on a Carver press) were stored at 25° C./60% RH and at 40° C./75% RH in glass vials with screw caps. Samples were removed from storage after 4 weeks and analyzed for metyrapone, oxazepam and related substances using both HPLS analytical methods (Test methods A and B). […]

[3] = Metyrapone Assay and Related Substances after 4 Weeks of Storage (HPLC Test Method B); details: for Assay at 1 mo (metyrapone) / Total imps at 1 mo: metyrapone method (Test Method B)
Protocol: as §1
Accurately weigh samples into a 500 mL volumetric flask. Add approximately 1 to 2 mL of water to disintegrate. Add sample diluent, sonicate for 15 minutes, shake for 15 minutes, and then bring to volume with sample diluent and mix well. Filter this solution and dilute to an appropriate sample concentration with sample diluent, and analyze by HPLC using the chromatographic conditions below.
as §2, §3, §4, §5, §6

[4] = 25 C. (25° C./60% RH), 4 weeks storage, Test Method A
[5] = 40 C. (40° C./75% RH), 4 weeks storage, Test Method A
[6] = 25 C. (25° C./60% RH), 4 weeks storage, Test Method B
[7] = 40 C. (40° C./75% RH), 4 weeks storage, Test Method B

SMILES: O=C1Nc2ccc(Cl)cc2C(c2ccccc2)=NC1O (centres unmarked) [oxazepam neat API, oxazepam]
- % Peak area, RRT 1.00 ** (Oxazepam) [1, 4]: 99.45 % Peak area
- % Peak area, RRT 1.28 [1, 4]: 0.25 % Peak area
- % Peak area, RRT 1.333 [1, 4]: 0.16 % Peak area
- Assay at 1 mo (oxazepam) ([1]; 25 C. (25° C./60% RH)): 95.00%
- Total imps at 1 mo ([1]; 25 C. (25° C./60% RH)): 0.41%
- % Peak area, RRT 1.00 ** (Oxazepam) [1, 5]: 99.67 % Peak area
- % Peak area, RRT 1.28 [1, 5]: 0.15 % Peak area
- % Peak area, RRT 1.329 [1, 5]: 0.05 % Peak area
- % Peak area, RRT 1.333 [1, 5]: 0.08 % Peak area
- Assay at 1 mo (oxazepam) ([1]; 40 C. (40° C./75% RH)): 93.20%
- Total imps at 1 mo ([1]; 40 C. (40° C./75% RH)): 0.28%
- oxazepam degradation ([2]; in 4 weeks at 40° C./75% RH, combined with metyrapone (admixtures and prototypes)): up to 50%

SMILES: CC(C)(C(=O)c1cccnc1)c1cccnc1 [metyrapone neat, metyrapone]
- % Peak area, RRT 0.27 [3, 6]: 0.14 % Peak area
- % Peak area, RRT 0.48 [3, 6]: 0.05 % Peak area
- % Peak area, RRT 0.67 [3, 6]: 0.01 % Peak area
- % Peak area, RRT 1.00 * (Metyrapone) [3, 6]: 99.44 % Peak area
- % Peak area, RRT 1.09 [3, 6]: 0.07 % Peak area
- Assay at 1 mo (metyrapone) ([3]; 25 C. (25° C./60% RH)): 100.60%
- Total imps at 1 mo ([3]; 25 C. (25° C./60% RH)): 0.26%
- % Peak area, RRT 0.27 [3, 7]: 0.15 % Peak area
- % Peak area, RRT 0.48 [3, 7]: 0.06 % Peak area
- % Peak area, RRT 1.00 * (Metyrapone) [3, 7]: 99.42 % Peak area
- % Peak area, RRT 1.09 [3, 7]: 0.09 % Peak area
- Assay at 1 mo (metyrapone) ([3]; 40 C. (40° C./75% RH)): 99.50%
- Total imps at 1 mo ([3]; 40 C. (40° C./75% RH)): 0.30%
- impact of the incompatibility on metyrapone ([2]; 4 weeks storage combined with oxazepam): minimal
